The structures appear in SMILES notation. Activity calls are given as the source filed them. The calls are words filed in the database; no cut-off is given here. Bounds are passed on as bounds.

Assay [1] deals with HT-29. The assay is described as follows: Anti-necroptosis activity against TNFalpha/Smac mimetic/Z-VAD-fmk-induced human HT-29 cells by CellTiter luminescence cell viability assay. Format: functional, cell-based.
Assay [2] has as its system HT-29. The assay is described as follows: Anti-necroptosis activity against TNFalpha/Smac mimetic/Z-VAD-fmk-induced human HT-29 cells measured after 24 hrs by CellTiter-Glo assay. Format: functional, cell-based. The conditions noted are these: HT-29, 24 h.
The target of assay [3] is T1, Receptor-interacting serine/threonine-protein kinase 1 (Homo sapiens, UniProt Q13546).
T1 sequence (Q13546 whole entry): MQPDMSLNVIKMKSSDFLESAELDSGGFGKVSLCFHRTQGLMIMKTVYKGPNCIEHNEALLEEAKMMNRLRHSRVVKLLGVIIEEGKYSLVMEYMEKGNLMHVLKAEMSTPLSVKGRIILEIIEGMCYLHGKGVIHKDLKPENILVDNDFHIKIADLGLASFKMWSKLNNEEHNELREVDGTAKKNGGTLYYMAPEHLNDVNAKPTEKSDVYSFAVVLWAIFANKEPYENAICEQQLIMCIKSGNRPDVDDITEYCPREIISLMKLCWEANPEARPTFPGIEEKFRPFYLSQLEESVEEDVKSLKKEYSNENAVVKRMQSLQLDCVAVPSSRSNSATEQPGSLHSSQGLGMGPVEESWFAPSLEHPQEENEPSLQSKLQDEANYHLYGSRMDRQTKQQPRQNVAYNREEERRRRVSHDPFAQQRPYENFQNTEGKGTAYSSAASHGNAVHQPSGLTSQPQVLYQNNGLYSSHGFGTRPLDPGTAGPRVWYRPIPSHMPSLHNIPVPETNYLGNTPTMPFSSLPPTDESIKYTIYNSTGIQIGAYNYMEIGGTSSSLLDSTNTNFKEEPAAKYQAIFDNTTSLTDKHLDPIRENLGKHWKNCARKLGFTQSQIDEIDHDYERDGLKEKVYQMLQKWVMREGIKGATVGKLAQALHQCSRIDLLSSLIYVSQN
The assay is described as follows: Binding affinity to RIPK1 (unknown origin) assessed as dissociation constant by displacement assay.

Assay [4] concerns the target T2, Receptor-interacting serine/threonine-protein kinase 3 (Homo sapiens, UniProt Q9Y572). The assay is described as follows: Binding affinity to RIPK3 (unknown origin) assessed as dissociation constant by displacement assay.
Target sequence in this assay (Q9Y572 whole entry): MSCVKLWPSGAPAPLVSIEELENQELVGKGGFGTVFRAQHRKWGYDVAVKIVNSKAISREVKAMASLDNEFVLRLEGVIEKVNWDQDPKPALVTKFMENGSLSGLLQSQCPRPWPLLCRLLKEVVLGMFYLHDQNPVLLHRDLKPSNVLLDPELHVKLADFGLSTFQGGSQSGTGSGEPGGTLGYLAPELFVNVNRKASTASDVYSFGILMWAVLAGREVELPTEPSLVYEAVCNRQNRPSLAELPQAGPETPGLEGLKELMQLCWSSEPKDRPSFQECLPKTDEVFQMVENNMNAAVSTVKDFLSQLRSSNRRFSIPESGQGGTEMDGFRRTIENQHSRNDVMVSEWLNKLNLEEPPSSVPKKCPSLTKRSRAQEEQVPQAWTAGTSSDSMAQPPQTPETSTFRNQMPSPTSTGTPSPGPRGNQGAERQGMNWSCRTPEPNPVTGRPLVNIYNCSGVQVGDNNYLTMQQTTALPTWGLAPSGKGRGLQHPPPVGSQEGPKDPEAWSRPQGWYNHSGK
A short description of assay [5]: Anti-necroptosis activity against TNF-alpha induced human Jurkat-FADD-/- cells pretreated for 30 mins followed by TNF-alpha addition and further incubated overnight by CellTiter-Glo 2.0 assay. Type of assay: functional, cell-based.
For assay [6], the target named is T3, Mixed lineage kinase domain-like protein (Homo sapiens) (UniProt Q8NB16).
T3 sequence (whole entry): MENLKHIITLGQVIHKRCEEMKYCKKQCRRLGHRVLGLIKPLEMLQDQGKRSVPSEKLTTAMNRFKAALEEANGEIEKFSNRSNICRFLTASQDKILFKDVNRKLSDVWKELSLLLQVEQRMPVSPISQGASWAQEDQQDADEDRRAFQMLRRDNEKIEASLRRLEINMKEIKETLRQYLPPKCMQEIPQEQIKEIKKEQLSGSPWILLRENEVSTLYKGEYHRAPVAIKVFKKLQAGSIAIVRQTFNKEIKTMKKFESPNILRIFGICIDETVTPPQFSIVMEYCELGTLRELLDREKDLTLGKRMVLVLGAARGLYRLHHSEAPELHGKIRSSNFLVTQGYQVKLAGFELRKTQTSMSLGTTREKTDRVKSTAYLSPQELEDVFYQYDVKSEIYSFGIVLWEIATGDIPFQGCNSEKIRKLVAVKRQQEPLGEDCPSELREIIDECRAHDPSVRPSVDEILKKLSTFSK
The assay is described as follows: Covalent inhibition of MLKL in TNFalpha/Smac mimetic/Z-VAD-fmk-induced human HT-29 cells assessed as inhibition of necroptosis pretreated for 3 hrs followed by washout and further treated with TNFalpha/Smac mimetic/Z-VAD-fmk and measured after 8 hrs by CellTiter luminescence cell viability assay. Format: cell-based.

For assay [7], the target named is T3, Mixed lineage kinase domain-like protein (Homo sapiens). The assay is described as follows: Covalent inhibition of MLKL in TNFalpha/Smac mimetic/Z-VAD-fmk-induced human HT-29 cells assessed as inhibition of necroptosis pretreated for 1 hrs followed by washout and further treated with TNFalpha/Smac mimetic/Z-VAD-fmk and measured after 8 hrs by CellTiter luminescence cell viability assay. Type of assay: cell-based.

Assay [8] has the same target. The assay is described as follows: Covalent inhibition of MLKL in TNFalpha/Smac mimetic/Z-VAD-fmk-induced human HT-29 cells assessed as inhibition of necroptosis pretreated for 5 mins followed by washout and further treated with TNFalpha/Smac mimetic/Z-VAD-fmk and measured after 8 hrs by CellTiter luminescence cell viability assay. Format: cell-based.
The target in assay [9] is T2, Receptor-interacting serine/threonine-protein kinase 3. The assay can be described thus: Inhibition of RIPK3 phosphorylation in TNFalpha/Smac mimetic/Z-VAD-fmk-induced human HT-29 cells at 2 uM measured after 6 hrs by Western blot analysis. Type of assay: cell-based.
Target sequence in this assay (Q9Y572 whole entry, looked up): as the sequence (Q9Y572 whole entry) above
The target of assay [10] is T3, Mixed lineage kinase domain-like protein (Homo sapiens). The assay can be described thus: Inhibition of MLKL phosphorylation in TNFalpha/Smac mimetic/Z-VAD-fmk-induced human HT-29 cells at 2 uM measured after 6 hrs by Western blot analysis. Format: cell-based.
The subject of another assay is L929. The assay is described as follows: Anti-necroptosis activity against TNF-alpha/Z-VAD-FMK induced mouse L929 cells at 20 uM. Format: functional, cell-based.

Turning to `Cc1ccc2sc(NS(=O)(=O)c3ccc(NC(=O)/C=C/c4ccc([N+](=O)[O-])s4)cc3)nc2c1`, in the assay on HT-29 [1], the EC50 stood at 2580 nM.
On the same count and under the same terms, as for `O=C(/C=C/c1ccc([N+](=O)[O-])s1)Nc1ccc(S(=O)(=O)Nc2nc3ccc(F)cc3s2)cc1`, the figure is 5150 nM; as for `O=C(/C=C/c1ccc([N+](=O)[O-])s1)Nc1ccc(S(=O)(=O)Nc2nc3c(Cl)cccc3s2)cc1`, 6230 nM; as for `O=C(/C=C/c1ccc([N+](=O)[O-])s1)Nc1ccc(S(=O)(=O)Nc2nc3ccc(C(F)(F)F)cc3s2)cc1`, more than 20000 nM.
Still for that read-out and setting: as for `O=C(/C=C/c1ccc([N+](=O)[O-])s1)Nc1ccc(S(=O)(=O)Nc2ccnc3ccccc23)cc1`, the figure is 579 nM.
In the assay with HT-29 [1], `O=C(/C=C/c1ccc([N+](=O)[O-])s1)Nc1ccc(S(=O)(=O)Nc2nc3ccc(Cl)cc3s2)cc1` had a 50% effective concentration (EC50) of 13800 nM.
Still for that read-out and setting: with `O=C(/C=C/c1ccc([N+](=O)[O-])s1)Nc1ccc(S(=O)(=O)Nc2nc3cc(F)ccc3s2)cc1` the figure was 6750 nM; with `Cc1ccc2nc(NS(=O)(=O)c3ccc(NC(=O)/C=C/c4ccc([N+](=O)[O-])s4)cc3)sc2c1`, 2910 nM.
With `O=C(/C=C/c1ccc([N+](=O)[O-])s1)Nc1ccc(S(=O)(=O)Nc2ccc3ccccc3n2)cc1`, the midpoint of the response in the assay with HT-29 [1], the EC50, lay at 329 nM.
On to `O=C(/C=C/c1ccc([N+](=O)[O-])s1)Nc1ccc(S(=O)(=O)Nc2cnc3ccccc3c2)cc1`, for which the EC50 with HT-29 [1] is 406 nM.
Still for that read-out and setting: with `O=C(/C=C/c1ccc([N+](=O)[O-])s1)Nc1ccc(S(=O)(=O)Nc2nc3cc(Cl)ccc3s2)cc1` the figure was 16200 nM.
The molecule `COc1nccnc1NS(=O)(=O)c1ccc(NC(=O)CCc2cccs2)cc1` showed an EC50 in the assay with HT-29 [2] of more than 20000 nM.
With `COc1ccc2sc(NS(=O)(=O)c3ccc(NC(=O)/C=C/c4ccc([N+](=O)[O-])s4)cc3)nc2c1`, the EC50 in the assay on HT-29 [1] came to 7030 nM.
Still for that read-out and setting: as for `Cc1cccc2sc(NS(=O)(=O)c3ccc(NC(=O)/C=C/c4ccc([N+](=O)[O-])s4)cc3)nc12`, the figure is 2750 nM.
As for `Nc1nccnc1C(=O)O[C@@H](C(=O)Nc1ccc(F)cc1)c1ccccc1`, the Kd in assay [3] and in assay [4] was more than 30000 nM throughout. In [5], the IC50 is more than 40000 nM.
With `O=C(/C=C/c1ccc([N+](=O)[O-])s1)Nc1ccc(S(=O)(=O)Nc2ncc3ccccc3n2)cc1`, in the assay with HT-29 [1], the EC50 worked out at 148 nM. The inhibition entry in [6] and in assay [7] was “Active” each time. Also, the inhibition entry in assay [8], in [9] and in [10] was “inactive” throughout. The result with L929 was inactive.
In the assay on HT-29 [1], `O=C(/C=C/c1ccc([N+](=O)[O-])s1)Nc1ccc(S(=O)(=O)Nc2cncc3ccccc23)cc1` gave an EC50 of 427 nM.
On the same count and under the same terms, as for `COc1ccc2nc(NS(=O)(=O)c3ccc(NC(=O)/C=C/c4ccc([N+](=O)[O-])s4)cc3)sc2c1`, the figure is 5080 nM.
Take `COc1cccc2sc(NS(=O)(=O)c3ccc(NC(=O)/C=C/c4ccc([N+](=O)[O-])s4)cc3)nc12`: the EC50 with HT-29 [1] was determined as 596 nM. Further, the inhibition result in [6] and in [7] was “Active” throughout. In addition, the inhibition result in assay [8], in assay [9] and in [10] was “inactive” each time. Also, the result with L929 was inactive.
Take `O=C(/C=C/c1ccc([N+](=O)[O-])s1)Nc1ccc(S(=O)(=O)Nc2nc3cc(Br)ccc3s2)cc1`: the EC50 in the assay with HT-29 [1] is more than 20000 nM.
Consider `COc1nccnc1NS(=O)(=O)c1ccc(NC(=O)/C=C/c2ccc([N+](=O)[O-])o2)cc1`, for which a half-maximal effect in the assay on HT-29 [1] (EC50) was put at 6410 nM. This counts as single-digit micromolar.
In the assay on HT-29 [1], `O=C(/C=C/c1ccc([N+](=O)[O-])s1)Nc1ccc(S(=O)(=O)Nc2nccc3ccccc23)cc1` gave an EC50 of 734 nM.
For the molecule `O=C(/C=C/c1ccc([N+](=O)[O-])s1)Nc1ccc(S(=O)(=O)Nc2nc3ccc(Br)cc3s2)cc1`, in the assay with HT-29 [1], the EC50 was more than 20000 nM.
Still for that read-out and setting: as for `O=C(/C=C/c1ccc([N+](=O)[O-])s1)Nc1ccc(S(=O)(=O)Nc2nc3ccccc3s2)cc1`, the figure is 1510 nM; as for `O=C(/C=C/c1ccc([N+](=O)[O-])s1)Nc1ccc(S(=O)(=O)Nc2ncnc3ccccc23)cc1`, 526 nM.
On the same count and under the same terms, as for `O=C(/C=C/c1ccc([N+](=O)[O-])s1)Nc1ccc(S(=O)(=O)Nc2nc3c(F)cccc3s2)cc1`, the figure is 7460 nM.
Still for that read-out and setting: as for `O=C(/C=C/c1ccc([N+](=O)[O-])s1)Nc1ccc(S(=O)(=O)Nc2cnc3ccccc3n2)cc1`, the figure is 384 nM; as for `Cn1c(NS(=O)(=O)c2ccc(NC(=O)/C=C/c3ccc([N+](=O)[O-])s3)cc2)nc2ccccc21`, 478 nM.
On to `C[C@@H](Oc1cc(-c2cnn(C3CCNCC3)c2)cnc1N)c1c(Cl)ccc(F)c1Cl` [CRIZOTINIB], for which the IC50 in assay [5] was more than 40000 nM.
As for `O=C(/C=C/c1ccc([N+](=O)[O-])s1)Nc1ccc(S(=O)(=O)Nc2ccc3nccnc3c2)cc1`, the EC50 in the assay on HT-29 [1] is 480 nM. In other words, the sub-micromolar range.
Consider `O=C(/C=C/c1ccc([N+](=O)[O-])s1)Nc1ccc(S(=O)(=O)Nc2nc3c(Br)cccc3s2)cc1`, for which a half-maximal effect with HT-29 [1] (EC50) was put at 7350 nM.
On to `COc1nccnc1NS(=O)(=O)c1ccc(NC(=O)/C=C/c2ccc([N+](=O)[O-])s2)cc1`, for which, in the assay with HT-29 [2], the EC50 was 447 nM. Also, the inhibition entry in assay [9] and in assay [10] was “inactive” in each case.
On to `O=C(/C=C/c1ccc([N+](=O)[O-])s1)Nc1ccc(S(=O)(=O)Nc2nc3ccc(OC(F)(F)F)cc3s2)cc1`, for which the EC50 in the assay with HT-29 [1] was more than 20000 nM.
For the molecule `O=C(/C=C/c1ccc([N+](=O)[O-])s1)Nc1ccc(S(=O)(=O)Nc2nc3ccccc3o2)cc1`, the EC50 with HT-29 [1] was determined as 1570 nM.
`COc1nccnc1NS(=O)(=O)c1ccc(NC(=O)/C=C/c2cccs2)cc1` showed an EC50 in the assay with HT-29 [2] of more than 20000 nM.
The molecule `COc1nccnc1NS(=O)(=O)c1ccc(NC(=O)CCc2ccc([N+](=O)[O-])s2)cc1` yielded an EC50 with HT-29 [2] of more than 20000 nM.
The molecule `O=C(/C=C/c1ccc([N+](=O)[O-])s1)Nc1ccc(S(=O)(=O)Nc2cc3ccccc3cn2)cc1` yielded an EC50 in the assay on HT-29 [1] of 621 nM.

The values are drawn from ChEMBL document CHEMBL5550094, “Design, synthesis and anti-necroptosis activity of fused heterocyclic MLKL inhibitors” (Bioorg Med Chem, 2024).
